Measurements taken from patent US20250179023A1, “HOLOSYMMETRIC BIPHENYL DERIVATIVE, AND PREPARATION METHOD THEREFOR AND USE THEREOF” (Abbisko Therapeutics Co., Ltd., priority 2022, published 2025).

Experiments:
in vitro = settings: human, Caco-2, pH 7.4
Method: (§6) The permeability and the efflux ratio of the compounds of the examples of the present invention and the comparative compounds were evaluated using a Caco-2 cell model in this experiment. The specific process was as follows: • 1) The Caco-2 cell culture medium was modified Eagle's medium (MEM) containing 10% inactivated fetal bovine serum and 1% nonessential amino acids.
(§7) Working solutions were obtained by diluting with Hank's balanced salt solution (HBSS, Invitrogen) containing 25 mM HEPES (pH 7.4). The detection concentration of the test compound was 10 μM. This study was a two-way permeation experiment from the apical side to the basolateral side (A−B) and from the basolateral side to the apical side (B−A), and a 90-minute incubation at 37° C. was required. After the incubation, the samples diluted with buffer were detected by LC-MS/MS. The concentrations of the compounds were quantified using a standard curve. • 4) Apparent permeability coefficient Papp value (cm/s):

Caco-2 cells [1] = tested on: Caco-2 cells
Method: as §6, §7

PD-1/PD-L1 interaction = PD-1/PD-L1 interaction (Homo sapiens (Human), UniProt Q9NZQ7); test: PD1-PDL1 HTRF binding activity test; settings: Cisbio PD-1/PD-L1 binding assay kit
Method: The effect of compounds of the examples of the present invention on the PD-1/PD-L1 interaction was determined by the PD-1/PD-L1 binding assay kit from Cisbio (#64ICP01PEG or 64ICP01PEH).

[2] = Caco-2 membrane permeability test; settings: human, Caco-2, pH 7.4
Method: as §6, §7

[3] = Pharmacokinetics in rats (exposure and oral availability); format: in vivo; settings: male, ICR, rat; for bioavailability: PO (5 mpk) vs IV (1 mpk), read-out: Oral availability (F %)
Excerpt: (§1) The purpose of this study is to study the pharmacokinetic behaviors of some compounds of the present invention, and administration routes were: single per oral administration (PO) or intravenous injection (IV) to ICR mice or rats.
(§2) The compounds used in this test were compounds of specific examples of the present invention and the comparative compounds listed.
ICR rats male N=3 original source: Shanghai Sippr-BK Laboratory Animal Co. Ltd.
(§3) The compounds were each dissolved in a corresponding vehicle, mixed well by shaking and subjected to ultrasonic treatment to obtain colorless clear solutions. 9 mice and 3 rats were orally administered with the solution after fasting overnight. The mice were dosed at 10 mg/kg (or 2 mg/kg by IV) and the rats were dosed at 5 mg/kg (or 1 mg/kg by IV).
(§4) With about 90 μL/time point, blood was drawn from the submaxillary vein, and heparin sodium was added for anticoagulation. The blood samples were placed onto the ice and centrifuged (centrifugation conditions: 8000 rpm, 6 min, 2-8° C.) within 1 hr to isolate the plasmas. The time points for blood sampling were at 0 hrs, 0.25 hrs, 0.5 hrs, 1 hr, 2 hrs, 4 hrs, 6 hrs, 8 hrs and 24 hrs after administration. The samples were stored in a refrigerator at −20° C.
(§5) 40 μL of plasma sample was added to 160 μL of cold acetonitrile containing an internal standard, and the mixture was vortexed for 3 min and centrifuged at 11,000 rpm for 5 min. 100 μL of the supernate was added to 100 μL of water, and 5 μL of the mixed solution was loaded for LC-MS/MS analysis. For comparative compounds 1, 3, 5, the prodrug compounds and corresponding prototype compounds 2, 4, 6 were all analyzed, and specific analysis results are shown in Table 4.

[4] = Pharmacokinetics in mice (exposure and oral availability); format: in vivo; settings: male, mouse, ICR mice; for bioavailability: PO (10 mpk) vs IV (2 mpk), read-out: Oral availability (F %)
Excerpt: as §1, §2
ICR mice male N=9 original source: Shanghai Sippr-BK Laboratory Animal Co. Ltd.
as §3, §4, §5

[5] = molecular target: PD-1/PD-L1 interaction (Jurkat/NF-κB-luc/PD1 cells cocultured with Raji-PD-L1 cells) (Homo sapiens (Human), UniProt Q9NZQ7); test: Jurkat reporter gene cellular assay; format: cell-based; settings: NF-κB-luc reporter activation fold, OKT3 1 μg/mL, 6 hrs; read-out: Cell activity EC50
Chain of PD-1/PD-L1 interaction (Jurkat/NF-κB-luc/PD1 cells cocultured with Raji-PD-L1 cells) (Q9NZQ7 19-290): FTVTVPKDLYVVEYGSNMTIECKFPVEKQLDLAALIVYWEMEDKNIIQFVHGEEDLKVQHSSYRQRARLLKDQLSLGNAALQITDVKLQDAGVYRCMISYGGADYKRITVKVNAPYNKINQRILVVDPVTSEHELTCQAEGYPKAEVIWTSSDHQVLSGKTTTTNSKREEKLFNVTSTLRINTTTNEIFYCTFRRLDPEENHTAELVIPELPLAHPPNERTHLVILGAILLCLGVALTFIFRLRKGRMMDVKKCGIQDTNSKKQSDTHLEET
Method: The effect of compounds of the examples of the present invention on the PD-1/PD-L1 interaction expressed on cell surfaces and the related influence on T cell functions were determined by a Jurkat reporter gene cellular assay. Briefly, the reporter gene plasmid of NF-κB-luc and the plasmid of human PD-1 were transfected into Jurkat cells to establish a stably transfected cell line capable of stably expressing both PD-1 and NF-κB-Luc reporter genes; the expression level of PD-1 on the cell surface was confirmed by flow cytometry; and the expression of the reporter gene was confirmed via the response of the reporter gene stimulated by OKT-3 and Raji cells.
In addition, the plasmid of human PD-L1 was transfected into Raji cells to obtain a cell line capable of stably expressing PD-L1. Jurkat/NF-κB-luc/PD1 cells and Raji-PD-L1 cells were then cocultured and stimulated with OKT-3. On this basis, the compounds were added, and the enhancement of the signal pathway of T cell activation by the inhibitory effect of the compounds on the PD-1/PD-L1 interaction was evaluated by readings of reporter gene responses.

Caco-2 cells [6] = test: Caco-2 membrane permeability test; settings: Caco-2, summary of Table 2
Method: as §6, §7

[7] = 5 mg/kg, PO (5 mpk), dosed compound detected in plasma
[8] = 10 mg/kg, PO (10 mpk), dosed compound detected in plasma

Chain of PD-1/PD-L1 interaction (Q9NZQ7 19-238): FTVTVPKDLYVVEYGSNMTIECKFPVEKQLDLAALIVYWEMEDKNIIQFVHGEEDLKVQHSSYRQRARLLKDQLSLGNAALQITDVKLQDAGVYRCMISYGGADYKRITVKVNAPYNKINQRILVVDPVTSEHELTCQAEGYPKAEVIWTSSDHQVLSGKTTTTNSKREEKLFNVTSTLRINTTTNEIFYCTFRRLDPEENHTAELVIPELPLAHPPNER

Compound	IC50 (PD-1/PD-L1 interaction)	Papp A→B at 90 min, 10 μM [2]	Papp B→A at 90 min, 10 μM [2]	efflux ratio at 90 min, 10 μM [2]	Cmax [4, 8]	bioavailability ([4]; plasma, 10 mg/kg)	EC50 [5]	further results
CC[C@H]1OC(=O)[C@H](C)[C@@H](O[C@H]2C[C@@](C)(OC)[C@@H](O)[C@H](C)O2)[C@H](C)[C@@H](O[C@@H]2O[C@H](C)C[C@H](N(C)C)[C@H]2O)[C@](C)(O)C[C@@H](C)C(=O)[C@H](C)[C@@H](O)[C@]1(C)O [Erythromycin, erythromycin]	–	–	–	–	–	–	–	Papp A→B at 90 min, 10 μM (in vitro): 0.2 ×10⁻⁶ cm/s; Papp B→A at 90 min, 10 μM (in vitro): 21.6 ×10⁻⁶ cm/s; efflux ratio at 90 min (in vitro): 107; Evaluation of permeability (Caco-2 cells [1]): High efflux
Cc1c(NC(=O)c2cc(C3CC3)c(CNC34CCC(C(=O)O)(CC3)CC4)cn2)cccc1-c1cccc(NC(=O)c2cc(C3CC3)c(CNC34CCC(C(=O)O)(CC3)CC4)cn2)c1C [Example 1, 4-(((6-((3′-(5-(((4-carboxybicyclo[2.2.2]octan-1-yl)amino)methyl) -4-cyclopropylpicolinamido)-2,2′-dimethyl-[1,1′-biphenyl]-3-yl)carbamoyl)-4-cyclopropylpyridin-3-yl)methyl)amino)bicyclo[2.2.2]octane-1-carboxylic acid]	2.56 nM	2.46 ×10⁻⁶ cm/s	16.5 ×10⁻⁶ cm/s	6.75	1910 ng/mL	19.5%	135 nM	AUC(0-t) [3, 7]: 2220 ng·h/mL; Cmax [3, 7]: 426 ng/mL; AUC(0-t) ([3]; plasma, 1 mg/kg, IV (1 mpk)): 2350 ng·h/mL; Cmax ([3]; plasma, 1 mg/kg, IV (1 mpk)): 3540 ng/mL; bioavailability ([3]; plasma, 5 mg/kg): 18.9%; AUC(0-t) [4, 8]: 8790 ng·h/mL; AUC(0-t) ([4]; plasma, 2 mg/kg, IV (2 mpk)): 9000 ng·h/mL; Cmax ([4]; plasma, 2 mg/kg, IV (2 mpk)): 4000 ng/mL
Cc1c(NC(=O)c2cc(C3CC3)c(CNC34CCC(C(=O)O)(CC3)C4)cn2)cccc1-c1cccc(NC(=O)c2cc(C3CC3)c(CNC34CCC(C(=O)O)(CC3)C4)cn2)c1C [Example 2, 4,4′-((((((2,2′-dimethyl-[1,1′-biphenyl]-3,3′-diyl)bis(azanediyl))bis(carbonyl))bis (4-cyclopropylpyridine-6,3-diyl))bis(methylene))bis(azanediyl))bis(bicyclo[2.2.1]heptane-1-carboxylic acid)]	3.67 nM	–	–	–	–	–	151 nM	–
Cc1c(NC(=O)c2cc(C3CC3)c(CN(C)C34CCC(C(=O)O)(CC3)C4)cn2)cccc1-c1cccc(NC(=O)c2cc(C3CC3)c(CN(C)C34CCC(C(=O)O)(CC3)C4)cn2)c1C [Example 3, 4,4′-((((((2,2′-dimethyl-[1,1′-biphenyl]-3,3′-diyl)bis(azanediyl))bis(carbonyl))bis(4-cyclopropylpyridine-6,3-diyl))bis(methylene))bis(methylazanediyl))bis(bicyclo[2.2.1]heptane-1-carboxylic acid)]	4.62 nM	–	–	–	–	–	1380 nM	–
COCCc1ccc(OCC(O)CNC(C)C)cc1 (centres unmarked) [Metoprolol, metoprolol]	–	–	–	–	–	–	–	Papp A→B at 90 min, 10 μM (in vitro): 24.7 ×10⁻⁶ cm/s; Papp B→A at 90 min, 10 μM (in vitro): 31.1 ×10⁻⁶ cm/s; efflux ratio at 90 min (in vitro): 1.26; Evaluation of permeability (Caco-2 cells [1]): High
Cc1c(NC(=O)c2cc(C3CC3)c(CN[C@H](CO)C(=O)O)cn2)cccc1-c1cccc(NC(=O)c2cc(C3CC3)c(CN[C@H](CO)C(=O)O)cn2)c1C [compound 2, reference compound]	–	0.67 ×10⁻⁶ cm/s	0.36 ×10⁻⁶ cm/s	0.53	–	0%	–	A−B membrane permeability (in words) (Caco-2 cells [6]): poor membrane permeability; AUC(0-t) ([3]; plasma, 1 mg/kg, IV (1 mpk)): 7640 ng·h/mL; Cmax ([3]; plasma, 1 mg/kg, IV (1 mpk)): 13200 ng/mL; AUC(0-t) ([4]; plasma, 2 mg/kg, IV (2 mpk)): 2360 ng·h/mL; Cmax ([4]; plasma, 2 mg/kg, IV (2 mpk)): 5640 ng/mL
CCOC(=O)CNCc1cnc(C(=O)Nc2cccc(-c3cccc(NC(=O)c4cc(C5CC5)c(CNCC(=O)OCC)cn4)c3C)c2C)cc1C1CC1 [compound 3, reference compound]	–	–	–	–	–	0%	–	–
Cc1c(NC(=O)c2cc(C3CC3)c(CNCC(=O)O)cn2)cccc1-c1cccc(NC(=O)c2cc(C3CC3)c(CNCC(=O)O)cn2)c1C [compound 4]	–	< 0.24 ×10⁻⁶ cm/s	0.98 ×10⁻⁶ cm/s	–	–	–	–	A−B membrane permeability (in words) (Caco-2 cells [6]): poor membrane permeability
COC(=O)[C@H]1CCN(Cc2cnc(C(=O)Nc3cccc(-c4cccc(NC(=O)c5cc(C6CC6)c(CN6CC[C@H](C(=O)OC)C6)cn5)c4C)c3C)cc2C2CC2)C1 [compound 5]	–	< 1.79 ×10⁻⁶ cm/s	< 0.65 ×10⁻⁶ cm/s	–	30.4 ng/mL	–	–	–

More lines, main results first:

IC50 (PD-1/PD-L1 interaction)	Papp A→B at 90 min, 10 μM [2]	Papp B→A at 90 min, 10 μM [2]	efflux ratio at 90 min, 10 μM [2]	Cmax [4, 8]	bioavailability ([4]; plasma, 10 mg/kg)	EC50 [5]	Compound	further results
1.46 nM	9.79 ×10⁻⁶ cm/s	21.7 ×10⁻⁶ cm/s	2.21	4550 ng/mL	57.5%	247 nM	Cc1c(NC(=O)c2cc(C3CC3)c(CNCC34CCC(C(=O)O)(CC3)C4)cn2)cccc1-c1cccc(NC(=O)c2cc(C3CC3)c(CNCC34CCC(C(=O)O)(CC3)C4)cn2)c1C [Example 4, 4,4′-(((((((2,2′-dimethyl-[1,1′-biphenyl]-3,3′-diyl)bis(azanediyl))bis(carbonyl))bis(4-cyclopropylpyridine-6,3-diyl))bis(methylene))bis(azanediyl))bis(methylene))bis(bicyclo[2.2.1]heptane-1-carboxylic acid)]	AUC(0-t) [3, 7]: 4840 ng·h/mL; Cmax [3, 7]: 1980 ng/mL; AUC(0-t) ([3]; plasma, 1 mg/kg, IV (1 mpk)): 2200 ng·h/mL; Cmax ([3]; plasma, 1 mg/kg, IV (1 mpk)): 1860 ng/mL; bioavailability ([3]; plasma, 5 mg/kg): 44%; AUC(0-t) [4, 8]: 17600 ng·h/mL; AUC(0-t) ([4]; plasma, 2 mg/kg, IV (2 mpk)): 6110 ng·h/mL; Cmax ([4]; plasma, 2 mg/kg, IV (2 mpk)): 3520 ng/mL
–	< 2.28 ×10⁻⁶ cm/s	< 1.85 ×10⁻⁶ cm/s	–	–	0%	–	COC(=O)[C@@H](CO)NCc1cnc(C(=O)Nc2cccc(-c3cccc(NC(=O)c4cc(C5CC5)c(CN[C@H](CO)C(=O)OC)cn4)c3C)c2C)cc1C1CC1 [compound 1, reference compound]	bioavailability ([3]; plasma, 5 mg/kg): 0%
–	0.34 ×10⁻⁶ cm/s	5.51 ×10⁻⁶ cm/s	16.3	46.2 ng/mL	–	–	Cc1c(NC(=O)c2cc(C3CC3)c(CN3CC[C@H](C(=O)O)C3)cn2)cccc1-c1cccc(NC(=O)c2cc(C3CC3)c(CN3CC[C@H](C(=O)O)C3)cn2)c1C [compound 6]	A−B membrane permeability (in words) (Caco-2 cells [6]): poor membrane permeability; AUC(0-t) [4, 8]: 147 ng·h/mL
